Reference: patent publication US8815774B2, “Herbicidal composition and method of use thereof” (Syngenta Crop Protection LLC, priority 2006, dated 2014)

How the values were obtained:
Assay type in all cases: in vivo
[1] = system: Trifolium repens (white clover); experiment: Glasshouse trial, control of white clover, post-emergence application
Description: (§1) A glasshouse trial was carried out. Large crabgrass seeds were sown into standard glasshouse potting mix (1:1 v/v Promix:Vero sand soil) contained in 10 cm square plastic pots. Treatments were replicated three times. Mesotrione (in the form Callisto® 480SE) was applied pre-emergence to large crabgrass (Digitaria sanguinalis) at either 12 g ai/ha or 24 g ai/ha with or without sulfentrazone (in the form Authority®). When used, sulfentrazone was applied at a rate of 140 g ai/ha or 280 g ai/ha. The adjuvant system was X-77 at 0.1% v/v in deionised water. 200 litres of herbicide/adjuvant system was used per hectare. General weed control was evaluated at 7 days after treatment (DAT). It is noted that all herbicides were applied at reduced field rates because herbicide effects are magnified in a glasshouse environment. Rates were chosen to give a 50 to 70% level of control with herbicides applied alone as this allows for detection of any synergistic effect when tank mixtures are used.
(§2) It is noted that control of large crabgrass with the higher rate of mesotrione alone was too high to allow for detection synergy when mesotrione was mixed with sulfentrazone. The lower rate of mesotrione was therefore used in this analysis. […] The results were evaluated using the Colby formula. The expected result for (A+B) is (A+B)−(A×B/100) where A and B are the ‘observed’ results for A and B on their own.
(§3) A glasshouse trial was set up as described in Example 1, except using carfentrazone instead of sulfentrazone, Trifolium repens (white clover) instead of large crabgrass, and different herbicide rates.
A glasshouse trial was set up as described in Example 2, except using applying the mixture post emergence rather than pre-emergence.

[2] = system: Trifolium repens (white clover); experiment: Glasshouse trial, control of white clover, pre-emergence application
Description: as §1, §2, §3

[3] = system: large crabgrass (Digitaria sanguinalis); experiment: Glasshouse trial, control of large crabgrass, pre-emergence application
Description: as §1, with “used. It is noted that control of large crabgrass with the higher rate of mesotrione alone was too high to allow for detection synergy when mesotrione was mixed with sulfentrazone. The lower rate of mesotrione was therefore used in this analysis. […] The results were evaluated using the Colby formula. The expected result for (A+B) is (A+B)−(A×B/100) where A and B are the ‘observed’ results for A and B on their own.” for “used.”

[4] = carfentrazone 18 g ai/ha plus mesotrione 100 g ai/ha
[5] = carfentrazone 18 g ai/ha plus mesotrione 150 g ai/ha
[6] = carfentrazone 36 g ai/ha plus mesotrione 100 g ai/ha
[7] = carfentrazone 36 g ai/ha plus mesotrione 150 g ai/ha
[8] = carfentrazone 18 g ai/ha plus mesotrione 25 g ai/ha
[9] = carfentrazone 18 g ai/ha plus mesotrione 50 g ai/ha
[10] = carfentrazone 36 g ai/ha plus mesotrione 25 g ai/ha
[11] = carfentrazone 36 g ai/ha plus mesotrione 50 g ai/ha

Structure (SMILES) | Actual control, Plus Mesotrione at 100 g ai/ha [1, 4] | Expected control, Plus Mesotrione at 100 g ai/ha [1, 4] | Actual control, Plus Mesotrione at 150 g ai/ha [1, 5] | Expected control, Plus Mesotrione at 150 g ai/ha [1, 5] | Actual control, Plus Mesotrione at 100 g ai/ha [1, 6] | Expected control, Plus Mesotrione at 100 g ai/ha [1, 6] | Actual control, Plus Mesotrione at 150 g ai/ha [1, 7] | Expected control, Plus Mesotrione at 150 g ai/ha [1, 7] | Actual control, Plus Mesotrione at 25 g ai/ha [2, 8] | Expected control, Plus Mesotrione at 25 g ai/ha [2, 8] | Actual control, Plus Mesotrione at 50 g ai/ha [2, 9] | Expected control, Plus Mesotrione at 50 g ai/ha [2, 9] | Actual control, Plus Mesotrione at 25 g ai/ha [2, 10] | Expected control, Plus Mesotrione at 25 g ai/ha [2, 10] | Actual control, Plus Mesotrione at 50 g ai/ha [2, 11] | Expected control, Plus Mesotrione at 50 g ai/ha [2, 11] | synergy (Colby formula and Student-Newman-Keuls multiple range test) ([3]; mesotrione 12 g ai/ha with sulfentrazone 140 g ai/ha) | Expected control (Colby formula), Plus Mesotrione at 12 g ai/ha ([3]; sulfentrazone 140 g ai/ha plus mesotrione 12 g ai/ha, 7 DAT) | Actual control, Plus Mesotrione at 12 g ai/ha ([3]; sulfentrazone 140 g ai/ha tank mixed with mesotrione 12 g ai/ha, 7 DAT) | control of large crabgrass, herbicide on its own ([3]; sulfentrazone alone (lower rate, 140 g ai/ha), 7 DAT) [%]
Cc1nn(-c2cc(CC(Cl)C(=O)O)c(Cl)cc2F)c(=O)n1C(F)F (centres unmarked) [Carfentrazone] | 70 | 43 | 93 | 65 | 72 | 53 | 93 | 71 | 55 | 50 | 75 | 62 | 73 | 49 | 85 | 61 |  |  |  | 
Cc1nn(-c2cc(NS(C)(=O)=O)c(Cl)cc2Cl)c(=O)n1C(F)F [Sulfentrazone, 2′,4′-dichloro-5′-(4-difluoromethyl-4,5-dihydro-3-methyl-5-oxo-1H-1,2,4-triazol-1-yl)methanesulfonanilide] |  |  |  |  |  |  |  |  |  |  |  |  |  |  |  |  | synergy was seen | 87.0 | 100 | 75
